# In patent US10584115B2, “Substituted pyridine and pyrazine BMI-1 inhibitors” (PTC Therapeutics, Inc., priority 2013, dated 2020):
# Test system: Bmi-1 protein
# Experiment: Sandwich ELISA Assay (Bmi-1 protein level in HT-1080 cells after compound treatment)
# Assay type: cell-based
# Conditions: Table 1, Bmi-1 sandwich ELISA, read-out: ELISA EC50 value for Bmi-1 protein
# Summary of the method: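 Sandwich ELISA quantified Bmi-1 protein against recombinant standard (125–8000 pg/mL), with lysates captured overnight at 4 °C and signal by HRP/TMB at 450 nm (570 nm reference). Lysates came from HT-1080 cells incubated 40–48 h with test compounds in 0.5% DMSO.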
row,EC50 [nM],Structure (SMILES)
1,100 to 3000,"Cc1cc2nc(C)n(-c3cc(C#N)cc(Nc4ccc(C(F)(F)F)cc4)n3)c2cc1C [Cpd 389, 2-{[4-(trifluoromethyl)phenyl]amino}-6-(2,5,6-trimethyl-1H-benzimidazol-1-yl)pyridine-4-carbonitrile]"
2,100 to 3000,"CCO/C=C\c1cn(-c2cncc(Nc3ccc(C(F)(F)F)cc3)n2)c(C)n1 [Cpd 391, 6-{4-[(Z)-2-ethoxyethenyl]-2-methyl-1H-imidazol-1-yl}-N-[4-(trifluoromethyl)phenyl]pyrazin-2-amine]"
3,100 to 3000,"CCc1ccc2nc(C)n(-c3cncc(Nc4ccc(C(F)(F)F)cc4)n3)c2c1 [Cpd 392, 6-(6-ethyl-2-methyl-1H-benzimidazol-1-yl)-N-[4-(trifluoromethyl)phenyl]pyrazin-2-amine]"
4,10 to 100,"Cc1cc(C)c2nc(C)n(-c3cncc(Nc4ccc(C(F)(F)F)cc4)n3)c2c1 [Cpd 421, N-[4-(trifluoromethyl)phenyl]-6-(2,4,6-trimethyl-1H-benzimidazol-1-yl)pyrazin-2-amine]"
5,10 to 100,"Cc1nc2c(F)cccc2n1-c1cc(C#N)cc(Nc2ccc(C(F)(F)F)cc2)n1 [Cpd 435, 2-(4-fluoro-2-methyl-1H-benzimidazol-1-yl)-6-{[4-(trifluoromethyl)phenyl]amino}pyridine-4-carbonitrile]"
6,10 to 100,"Cc1nc2c(F)cccc2n1-c1cc(C#N)cc(Nc2ccc(OC(F)F)cc2)n1 [Cpd 436, 2-{[4-(difluoromethoxy)phenyl]amino}-6-(4-fluoro-2-methyl-1H-benzimidazol-1-yl)pyridine-4-carbonitrile]"
7,10 to 100,"Cc1nc2c(F)cc(F)cc2n1-c1cc(C#N)cc(Nc2ccc(C(F)(F)F)cc2)n1 [Cpd 447, 2-(4,6-difluoro-2-methyl-1H-benzimidazol-1-yl)-6-{[4-(trifluoromethyl)phenyl]amino}pyridine-4-carbonitrile]"
8,10 to 100,"Cc1nc2c(F)cc(F)cc2n1-c1cc(C#N)cc(Nc2ccc(OC(F)F)cc2)n1 [Cpd 448, 2-{[4-(difluoromethoxy)phenyl]amino}-6-(4,6-difluoro-2-methyl-1H-benzimidazol-1-yl)pyridine-4-carbonitrile]"
9,100 to 3000,"Cc1nc2c(F)cc(F)cc2n1-c1cc(C#N)cc(Nc2ccc(OC(F)(F)F)cc2)n1 [Cpd 449, 2-(4,6-difluoro-2-methyl-1H-benzimidazol-1-yl)-6-{[4-(trifluoromethoxy)phenyl]amino}pyridine-4-carbonitrile]"
10,100 to 3000,"Cc1nc2ccccc2n1-c1cc(F)cc(Nc2ccc(C(F)(F)F)cc2[N+](=O)[O-])n1 [Cpd 493, 4-fluoro-6-(2-methyl-1H-benzimidazol-1-yl)-N-[2-nitro-4-(trifluoromethyl)phenyl]pyridin-2-amine]"
11,10 to 100,"Cc1nc2ccccc2n1-c1cc(F)cc(Nc2ccc(C(F)(F)F)cc2)n1 [Cpd 494, 4-fluoro-6-(2-methyl-1H-benzimidazol-1-yl)-N-[4-(trifluoromethyl)phenyl]pyridin-2-amine]"
12,1 to 10,"Cc1ccc(Nc2cccc(-n3c(C)nc4ccccc43)n2)cc1 [Cpd 581, 6-(2-methyl-1H-benzimidazol-1-yl)-N-(4-methylphenyl)pyridin-2-amine]"
13,10 to 100,"Cc1nc2ccc(F)cc2n1-c1cccc(Nc2ccc(OC(F)F)cc2)n1 [Cpd 584, N-[4-(difluoromethoxy)phenyl]-6-(6-fluoro-2-methyl-1H-benzimidazol-1-yl)pyridin-2-amine]"
14,100 to 3000,"Cc1nc2ccc(F)cc2n1-c1cccc(Nc2ccc(OC(F)(F)F)cc2)n1 [Cpd 585, 6-(6-fluoro-2-methyl-1H-benzimidazol-1-yl)-N-[4-(trifluoromethoxy)phenyl]pyridin-2-amine]"
15,1 to 10,"COc1ccc(Nc2cccc(-n3c(C)nc4ccc(F)cc43)n2)cc1 [Cpd 586, 6-(6-fluoro-2-methyl-1H-benzimidazol-1-yl)-N-(4-methoxyphenyl)pyridin-2-amine]"
16,1 to 10,"Cc1ccc(Nc2cccc(-n3c(C)nc4ccc(F)cc43)n2)cc1 [Cpd 587, 6-(6-fluoro-2-methyl-1H-benzimidazol-1-yl)-N-(4-methylphenyl)pyridin-2-amine]"
17,100 to 3000,"Cc1nc2ccccc2n1-c1cccc(Nc2ccc(Cl)cc2)n1 [Cpd 606, N-(4-chlorophenyl)-6-(2-methyl-1H-benzimidazol-1-yl)pyridin-2-amine]"
18,10 to 100,"Cc1nc2ccc(F)cc2n1-c1cccc(Nc2ccc(C(F)(F)F)cc2)n1 [Cpd 607, 6-(6-fluoro-2-methyl-1H-benzimidazol-1-yl)-N-[4-(trifluoromethyl)phenyl]pyridin-2-amine]"
19,10 to 100,"Cc1nc2ccc(F)cc2n1-c1cccc(Nc2ccc(Cl)cc2)n1 [Cpd 608, N-(4-chlorophenyl)-6-(6-fluoro-2-methyl-1H-benzimidazol-1-yl)pyridin-2-amine]"
20,100 to 3000,"Cc1nc2ccc(F)cc2n1-c1cccc(Nc2ccc(C#N)cc2)n1 [Cpd 609, 4-{[6-(6-fluoro-2-methyl-1H-benzimidazol-1-yl)pyridin-2-yl]amino}benzonitrile]"

row,EC50 [nM],Structure (SMILES)
1,10 to 100,"COC(=O)c1ccc(Nc2cccc(-n3c(C)nc4ccc(F)cc43)n2)cc1 [Cpd 610, methyl 4-{[6-(6-fluoro-2-methyl-1H-benzimidazol-1-yl)pyridin-2-yl]amino}benzoate]"
2,10 to 100,"Cc1ccc(Nc2cc(C#N)cc(-n3c(C)nc4ccccc43)n2)cc1 [Cpd 634, 2-(2-methyl-1H-benzimidazol-1-yl)-6-[(4-methylphenyl)amino]pyridine-4-carbonitrile]"
3,10 to 100,"COc1ccc2nc(C(F)(F)F)c(-c3cncc(Nc4ccccc4)n3)n2c1 [Cpd 678, 6-[6-methoxy-2-(trifluoromethyl)imidazo[1,2-a]pyridin-3-yl]-N-phenylpyrazin-2-amine]"
4,10 to 100,"COc1ccc2nc(C(F)(F)F)c(-c3cncc(Nc4ccc(Cl)cc4)n3)n2c1 [Cpd 679, N-(4-chlorophenyl)-6-[6-methoxy-2-(trifluoromethyl)imidazo[1,2-a]pyridin-3-yl]pyrazin-2-amine]"
5,10 to 100,"COc1ccc2nc(C(F)(F)F)c(-c3cncc(Nc4ccc(Br)cc4)n3)n2c1 [Cpd 680, N-(4-bromophenyl)-6-[6-methoxy-2-(trifluoromethyl)imidazo[1,2-a]pyridin-3-yl]pyrazin-2-amine]"
6,100 to 3000,"COc1ccc2nc(C(F)(F)F)c(-c3cncc(Nc4ccc(F)cc4)n3)n2c1 [Cpd 681, N-(4-fluorophenyl)-6-[6-methoxy-2-(trifluoromethyl)imidazo[1,2-a]pyridin-3-yl]pyrazin-2-amine]"
7,100 to 3000,"COc1ccc2nc(C(F)(F)F)c(-c3cncc(Nc4ccc(C)cc4)n3)n2c1 [Cpd 682, 6-[6-methoxy-2-(trifluoromethyl)imidazo[1,2-a]pyridin-3-yl]-N-(4-methylphenyl)pyrazin-2-amine]"
8,10 to 100,"COc1ccc(Nc2cncc(-n3cnc4ccccc43)n2)cc1 [compound 1, 6-(1H-benzimidazol-1-yl)-N-(4-methoxyphenyl)pyrazin-2-amine]"
9,10 to 100,"Ic1ccc(Nc2cncc(-n3cnc4ccccc43)n2)cc1 [compound 2, 6-(1H-benzimidazol-1-yl)-N-(4-iodophenyl)pyrazin-2-amine]"
10,< 1,"COc1ccc(Nc2cncc(-n3c(C)nc4ccccc43)n2)cc1F [compound 12, N-(3-fluoro-4-methoxyphenyl)-6-(2-methyl-1H-benzimidazol-1-yl)pyrazin-2-amine]"
11,10 to 100,"Cc1nc2ccccc2n1-c1cncc(Nc2ccc(C(F)(F)F)cc2)n1 [compound 13, 6-(2-methyl-1H-benzimidazol-1-yl)-N-[4-(trifluoromethyl)phenyl]pyrazin-2-amine]"
12,100 to 3000,"FC(F)(F)c1ccc(Nc2cncc(-n3c(C(F)(F)F)nc4ccccc43)n2)cc1 [compound 14, 6-[2-(trifluoromethyl)-1H-benzimidazol-1-yl]-N-[4-(trifluoromethyl)phenyl]pyrazin-2-amine]"
13,10 to 100,"FC(F)(F)c1ccc(Nc2cncc(-c3cccc4cc(C(F)(F)F)nn34)n2)cc1 [compound 15, N-[4-(trifluoromethyl)phenyl]-6-[2-(trifluoromethyl)pyrazolo[1,5-a]pyridin-7-yl]pyrazin-2-amine]"
14,100 to 3000,"Cc1nc2ccccc2n1-c1cncc(Nc2ccc(OC(F)(F)F)cc2)n1 [compound 19, 6-(2-methyl-1H-benzimidazol-1-yl)-N-[4-(trifluoromethoxy)phenyl]pyrazin-2-amine]"
15,10 to 100,"Cc1nc2ccccc2n1-c1cncc(Nc2ccc(Cl)cc2)n1 [compound 20, N-(4-chlorophenyl)-6-(2-methyl-1H-benzimidazol-1-yl)pyrazin-2-amine]"
16,1 to 10,"Cc1nc2ccccc2n1-c1cncc(Nc2ccc(OC(F)F)cc2)n1 [compound 21, N-[4-(difluoromethoxy)phenyl]-6-(2-methyl-1H-benzimidazol-1-yl)pyrazin-2-amine]"
17,1 to 10,"COc1ccc(Nc2cncc(-n3c(C)nc4ccccc43)n2)cc1Cl [compound 28, N-(3-chloro-4-methoxyphenyl)-6-(2-methyl-1H-benzimidazol-1-yl)pyrazin-2-amine]"
18,100 to 3000,"COc1ccc(Nc2nc(-c3c(C(F)(F)F)nc4ccccn34)ccc2C#N)cc1 [compound 41, 2-[(4-methoxyphenyl)amino]-6-[2-(trifluoromethyl)imidazo[1,2-a]pyridin-3-yl]pyridine-3-carbonitrile]"
19,1 to 10,"COc1ccc(Nc2cncc(-n3c(C(F)(F)F)nc4ccccc43)n2)cc1 [compound 43, N-(4-methoxyphenyl)-6-[2-(trifluoromethyl)-1H-benzimidazol-1-yl]pyrazin-2-amine]"

# Same assay, conditions: read-out: ELISA EC50 value for Bmi-1 protein, Table 1, Bmi-1 sandwich ELISA
row,Structure (SMILES),EC50 [nM]
1,"Cc1nc2ccccc2n1-c1cc(N)cc(Nc2ccc(C(F)(F)F)cc2)n1 [Cpd 492, 6-(2-methyl-1H-benzimidazol-1-yl)-N^2-[4-(trifluoromethyl)phenyl]pyridine-2,4-diamine]",10 to 100
2,"COc1ccc(Nc2nc(-n3c(C)nc4ccccc43)ccc2N)cc1 [Cpd 518, N^2-(4-methoxyphenyl)-6-(2-methyl-1H-benzimidazol-1-yl)pyridine-2,3-diamine]",10 to 100
